The numbers were not newly measured in patent US10111933B2, “Use of growth hormone fragments” (Metabolic Pharmaceuticals Pty Ltd, priority 2011, dated 2018), which cites them from elsewhere.

This series concerns C57Bl/6J (Ob/Ob) mouse. Particulars: cited from earlier work.

In the case of “hGH 177-191: synthetic peptide corresponding to amino acid residues 177-191 of human growth hormone sequence (LRIVQCRSVEGSCGF; UniProt P01241 203-217, looked up, fragment)”, the adipose tissue mass entry is “reduce” and the body weight gain entry is listed as “reduce”.
